From patent US20050176812A1, “Method of treating cancer” (priority 2003, published 2005) come the findings set out here.

The nature of data set [1]: precipitation on direct i.v. infusion followed by normal saline flush. The data set is classed as physicochemical. The conditions noted are these: 0.77 mg/mL in 40% propylene glycol, 10% ethanol, 50% normal saline; direct i.v. infusion into the vein followed by normal saline flush. How it is done:
Preferably the infusion solution of the present invention is prepared by mixing the infusion concentrate with a diluent, such as 16.3% W/v ethanol in saline in a suitable container. A preferred formulation comprises 1 mL of 2 mg/mL infusion concentrate diluted with 1.6 mL of 16.3% w/v ethanol in saline to yield an infusion solution containing 0.77 mg/mL discodermolide in 40% propylene glycol, 10% ethanol and 50% normal saline. This solution is administered via iv infusion, or push into Y tubing containing a 0.9% normal saline drip, directly into the vein and the drug solution residue in the tubing will be flushed with normal saline. The volume of discodermolide solution given via i.v. push will vary from 0.3 mL (at the starting does of 0.2 mg or 0.13 mg/m^2) to 26 mL (for a dose of 20 mg or 11.43 mg/m^2) or 43 mL (for a dose of 33 mg or 19.2 mg/m^2).

Data set [2] can be described thus: stability of discodermolide infusion solution. The data set is classed as physicochemical. Conditions: infusion concentrate mixed with diluent; infusion solution 0.1-2.0 mg/mL, 0.1-1.5 mg/mL, 0.5-8.0 mg/mL or 0.77 mg/mL. The protocol: The amount of diluent used in admixture with the infusion concentrate to form an infusion solution may be chosen so as to obtain a desired concentration of discodermolide in the infusion solution. The amount of diluent used is also chosen so that the solution is stable long enough to be administered. Concentration of infusion solutions are 0.1-2.0 mg/mL, or 0.1-1.5 mg/mL or preferably 0.5-8.0 mg/mL or 0.77 mg/mL. Such solutions are found to be stable for up to 8 hours.

Turning to `C=C/C=C\[C@H](C)[C@H](OC(N)=O)[C@@H](C)[C@H](O)[C@@H](C)C/C(C)=C\[C@H](C)[C@@H](O)[C@@H](C)/C=C\[C@@H](O)C[C@@H]1OC(=O)[C@H](C)[C@@H](O)[C@H]1C` [discodermolide], the precipitation of discodermolide entry in data set [1] was “will not cause any precipitation”. In addition, in data set [2], the “stability of infusion solution (time stable)” value is given as “up to 8 hours”.
